Here are results for four compounds from US6635641B2 (Agouron Pharmaceuticals, Inc., priority 2000, dated 2003).

Each structure is given as a SMILES string. Read-outs that look alike come from different tables or passages of the source.

In assay [1] the test system is lung cancer cells (line MV522). In words: Cancer cell proliferation (MV522) assay (MTT). As to conditions: MV522. It counts as cell-based. An outline of the steps:
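Proliferation was read by MTT reduction 72 h after compound addition, in a 4-day protocol with no starvation step. Two thousand MV522 cells were seeded in RPMI1640 with 10% FBS and 2 mM glutamine and given 1 day to attach before dosing.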

Assay [2] concerns the target T1, unphosphorylated VEGF-R2Δ50 (FLVK) (Homo sapiens, UniProt P35968, DEL940-989/E990V).
T1 construct: VEGF-R2Δ50 contains residues 806-939 and 990-1171; made in house; host or cells: baculovirus/insect cells
In words: VEGF-R2 coupled spectrophotometric assay, unphosphorylated construct (FLVK).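 Further: Baculovirus-expressed cytosolic kinase domain, ADP formation linked via pyruvate kinase and lactate dehydrogenase to NADH oxidation, read as falling absorbance at 340 nm.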 It is filed as biochemical.
Description: A construct (VEGF-R2Δ50) of the cytosolic domain of human vascular endothelial growth factor receptor 2 (VEGF-R2) lacking the 50 central residues of the 68 residues of the kinase insert domain was expressed in a baculovirus/insect cell system. […] Autophosphorylation of the purified construct was performed by incubation of the enzyme at a concentration of 4 μM in the presence of 3 mM ATP and 40 mM MgCl2 in 100 mM Hepes, pH 7.5, containing 5% glycerol and 5 mM DTT, at 4° C. for 2 h.
The production of ADP from ATP that accompanies phosphoryl transfer was coupled to oxidation of NADH using phosphoenolpyruvate (PEP) and a system having pyruvate kinase (PK) and lactic dehydrogenase (LDH). The oxidation of NADH was monitored by following the decrease of absorbance at 340 nm (e340=6.22 cm^−1 mM^−1) using a Beckman DU 650 spectrophotometer. Assay conditions for phosphorylated VEGF-R2Δ50 (indicated as FLVK-P in the tables below) were the following: 1 mM PEP; 250 μM NADH; 50 units of LDH/mL; 20 units of PK/mL; 5 mM DTT; 5.1 mM poly(E4Y1); 1 mM ATP; and 25 mM MgCl2 in 200 mM Hepes, pH 7.5. Assay conditions for unphosphorylated VEGF-R2Δ50 (indicated as FLVK in the tables) were the following: 1 mM PEP; 250 μM NADH; 50 units of LDH/mL; 20 units of PK/mL; 5 mM DTT; 20 mM poly(E4Y1); 3 mM ATP; and 60 mM MgCl2 and 2 mM MnCl2 in 200 mM Hepes, pH 7.5. Assays were initiated with 5 to 40 nM of enzyme. Ki values were determined by measuring enzyme activity in the presence of varying concentrations of test compounds. The data were analyzed using Enzyme Kinetic and Kaleidagraph software.

Another assay addresses CDK2/Cyclin A complex (Homo sapiens, UniProt P24941). Description: CDK2/Cyclin A assay ([32P]ATP incorporation into Rb fragment). As to conditions: read-out: CDK2 percent inhibition. It is filed as biochemical. As to the method:
CDK2 was purified using published methodology (Rosenblatt et al., J. Mol. Biol., 230, 1317-1319 (1993)) from insect cells that had been infected with a baculovirus expression vector. Cyclin A was purified from E. coli cells expressing full-length recombinant cyclin A, and a truncated cyclin A construct was generated by limited proteolysis and purified as described previously (Jeffrey et al., Nature, 376, 313-320 (1995)).
Cyclin-dependent kinase activity was measured by quantifying the enzyme-catalyzed, time-dependent incorporation of radioactive phosphate from [^32P]ATP into a recombinant fragment of the retinoblastoma protein. Unless noted otherwise, assays were performed in 96-well plates in a total volume of 50 μL, in the presence of 10 mM HEPES (N-[2-hydroxyethyl]piperazine-N′-[2-ethanesulfonic acid]) (pH 7.4), 10 mM MgCl2, 25 μM adenosine triphosphate (ATP), 1 mg/mL ovalbumin, 5 μg/mL leupeptin, 1 mM dithiothreitol, 10 mM β-glycerophosphate, 0.1 mM sodium vanadate, 1 mM sodium fluoride, 2.5 mM ethylene glycol-bis(β-aminoethyl ether)-N,N,N′N′-tetraacetic acid (EGTA), 2% (v/v) dimethylsulfoxide, and 0.03-0.2 μCi [^32P]ATP. The substrate (0.3-0.5 μg) was purified recombinant retinoblastoma protein fragment (Rb) (residues 386-928 of the native retinoblastoma protein; 62.3 kDa, containing the majority of the phosphorylation sites found in the native 106-kDa protein, as well as a tag of six histidine residues for ease of purification). Reactions were initiated with CDK2 (150 nM CDK2/Cyclin A complex) or CDK4 (50 nM CDK4/Cyclin D3 complex), incubated at 30° C., and terminated after 20 minutes by the addition of ethylenediaminetetraacetic acid (EDTA) to 250 mM. The phosphorylated substrate was then captured on a nitrocellulose membrane using a 96-well filtration manifold, and unincorporated radioactivity was removed by repeated washing with 0.85% phosphoric acid. Radioactivity was quantified by exposing the dried nitrocellulose membranes to a phosphorimager. Apparent Ki values were measured by assaying enzyme activity in the presence of different compound concentrations and subtracting the background radioactivity measured in the absence of enzyme. The kinetic parameters (kcat, Km for ATP) were measured for each enzyme under the usual assay conditions by determining the dependence of initial rates on ATP concentration. The data were fit to an equation for competitive inhibition using Kaleidagraph (Synergy Software), or were fit to an equation for competitive tight-binding inhibition using the software KineTic (BioKin, Ltd.). Measured Ki values for known inhibitors against CDK4 and CDK2 agreed with published IC50 values. […]

Assay [3] relates to human umbilical vein endothelial cells (HUVEC). In words: HUVEC proliferation assay (VEGF-stimulated, MTT). It is filed as cell-based. The note with it: Homo sapiens, HUVEC. The method in brief: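 Proliferation measured by MTT reduction (4 h exposure, absorbance at 595) 72 hours after VEGF stimulation (final 6 ng/ml). Compound added to 24 h-starved HUVEC in F12K with 1% FBS and 0.1% final DMSO, one hour before the growth factor.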

In the next assay the target is T2, CDK4/Cyclin D3 complex (Homo sapiens, UniProt P11802).
T2 construct: made in house; host or cells: insect cells co-infected with baculovirus vectors
Description: CDK4/Cyclin D assay ([32P]ATP incorporation into Rb fragment). It is filed as biochemical. The note with it: read-out: CDK4 percent inhibition. On the procedure:
A complex of human CDK4 and cyclin D3, or a complex of cyclin D1 and a fusion protein of human CDK4 and glutathione-S-transferase (GST-CDK4), was purified using traditional biochemical chromatographic techniques from insect cells that had been co-infected with the corresponding baculovirus expression vectors.
Cyclin-dependent kinase activity was measured by quantifying the enzyme-catalyzed, time-dependent incorporation of radioactive phosphate from [^32P]ATP into a recombinant fragment of the retinoblastoma protein. Unless noted otherwise, assays were performed in 96-well plates in a total volume of 50 μL, in the presence of 10 mM HEPES (N-[2-hydroxyethyl]piperazine-N′-[2-ethanesulfonic acid]) (pH 7.4), 10 mM MgCl2, 25 μM adenosine triphosphate (ATP), 1 mg/mL ovalbumin, 5 μg/mL leupeptin, 1 mM dithiothreitol, 10 mM β-glycerophosphate, 0.1 mM sodium vanadate, 1 mM sodium fluoride, 2.5 mM ethylene glycol-bis(β-aminoethyl ether)-N,N,N′N′-tetraacetic acid (EGTA), 2% (v/v) dimethylsulfoxide, and 0.03-0.2 μCi [^32P]ATP. The substrate (0.3-0.5 μg) was purified recombinant retinoblastoma protein fragment (Rb) (residues 386-928 of the native retinoblastoma protein; 62.3 kDa, containing the majority of the phosphorylation sites found in the native 106-kDa protein, as well as a tag of six histidine residues for ease of purification). Reactions were initiated with CDK2 (150 nM CDK2/Cyclin A complex) or CDK4 (50 nM CDK4/Cyclin D3 complex), incubated at 30° C., and terminated after 20 minutes by the addition of ethylenediaminetetraacetic acid (EDTA) to 250 mM. The phosphorylated substrate was then captured on a nitrocellulose membrane using a 96-well filtration manifold, and unincorporated radioactivity was removed by repeated washing with 0.85% phosphoric acid. Radioactivity was quantified by exposing the dried nitrocellulose membranes to a phosphorimager. Apparent Ki values were measured by assaying enzyme activity in the presence of different compound concentrations and subtracting the background radioactivity measured in the absence of enzyme. The kinetic parameters (kcat, Km for ATP) were measured for each enzyme under the usual assay conditions by determining the dependence of initial rates on ATP concentration. The data were fit to an equation for competitive inhibition using Kaleidagraph (Synergy Software), or were fit to an equation for competitive tight-binding inhibition using the software KineTic (BioKin, Ltd.). Measured Ki values for known inhibitors against CDK4 and CDK2 agreed with published IC50 values. The specific activity of CDK4 was the same whether complexed to full-length cyclin D3 or the truncated Cyclin D3 construct; both complexes also yielded very similar Ki values for selected inhibitors.

Setting [4] is: with albumin, read-out: Huvec + Albumin IC50.

T1 sequence (P35968 with tags, fused parts or gaps DEL940-989/E990V limits assumed): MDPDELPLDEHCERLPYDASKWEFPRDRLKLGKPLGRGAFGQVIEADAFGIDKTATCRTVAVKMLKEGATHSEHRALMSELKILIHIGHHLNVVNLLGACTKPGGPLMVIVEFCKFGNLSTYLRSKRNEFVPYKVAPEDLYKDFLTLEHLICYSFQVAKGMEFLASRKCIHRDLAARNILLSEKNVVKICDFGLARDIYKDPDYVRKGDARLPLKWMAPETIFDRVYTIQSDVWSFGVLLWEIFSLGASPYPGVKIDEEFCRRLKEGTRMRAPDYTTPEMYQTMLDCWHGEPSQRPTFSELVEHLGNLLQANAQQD
T2 sequence (P11802 whole entry): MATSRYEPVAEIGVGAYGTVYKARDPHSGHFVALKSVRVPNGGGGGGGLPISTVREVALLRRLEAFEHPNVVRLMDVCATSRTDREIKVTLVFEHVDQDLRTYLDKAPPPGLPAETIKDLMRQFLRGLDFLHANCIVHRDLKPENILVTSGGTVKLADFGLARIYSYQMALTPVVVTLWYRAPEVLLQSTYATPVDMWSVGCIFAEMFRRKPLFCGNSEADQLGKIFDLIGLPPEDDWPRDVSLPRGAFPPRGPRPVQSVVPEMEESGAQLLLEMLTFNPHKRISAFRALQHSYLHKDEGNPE
T2 sequence (P30281 whole entry partner): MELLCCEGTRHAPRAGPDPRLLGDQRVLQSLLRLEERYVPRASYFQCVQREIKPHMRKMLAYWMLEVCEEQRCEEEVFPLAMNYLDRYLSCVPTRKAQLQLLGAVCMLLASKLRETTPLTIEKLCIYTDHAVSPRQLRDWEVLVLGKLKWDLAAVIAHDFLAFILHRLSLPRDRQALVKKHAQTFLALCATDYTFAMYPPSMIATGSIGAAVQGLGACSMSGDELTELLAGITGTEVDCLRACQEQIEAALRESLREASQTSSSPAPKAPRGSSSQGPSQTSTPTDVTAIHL

For `Cc1ccc2cc(NC(=O)c3cccc(SCc4cc(Nc5ccccc5)n[nH]4)c3)ccc2n1` [Example E-1, N-(2-methyl-quinolin-6-yl)-3-[{5-(phenylamino)-2-H-pyrazol-3-yl}methylsulfanyl]benzamide], the IC50 in assay [1] was > 10000 nM; in assay [3] (read-out: HUVEC IC50), 170 nM; in assay [3] (setting [4]), > 1000 nM. In assay [2], this compound gave an inhibition constant Ki of 1.4 nM. Also, the inhibition at 100 µM was determined as 23% at CDK2/Cyclin A complex (@ 100 μM) and 40% on CDK4/Cyclin D3 complex (@ 100 μM).
As for `O=C(Nc1ccc(N2CCCC2)c(C(F)(F)F)c1)c1cccc(CCc2cc(Nc3cccnc3)n[nH]2)c1` [Example G-11], the IC50 in assay [1] is 5600 nM; in assay [3] (read-out: HUVEC IC50), 4.4 nM; in assay [3] (setting [4]) it was 64 nM. The Ki in assay [2] worked out at 0.11 nM. The inhibition at 1 µM at CDK4/Cyclin D3 complex came out at 16%.
In the case of `Cc1cc(NC(=O)c2ccc(F)c(OCc3cncc4ccccc34)c2)ccc1C(C)C` [Example K-10, N-(4-Isopropyl-3-methyl-phenyl)-4-fluoro-3-(Isoquinolin-4-yl)methoxy-benzamide], the 50% inhibitory concentration (IC50) in assay [1] came out at 4600 nM; in assay [3] (read-out: HUVEC IC50), 12 nM. Also, the Ki in assay [2] amounted to 0.23 nM. The inhibition at 1 µM amounted to 12% on CDK2/Cyclin A complex and 17% on CDK4/Cyclin D3 complex.
Take `CC(=O)Nc1ccc(COc2cccc(C(=O)Nc3ccc4nc(C)ccc4c3)c2)cn1` [Example N-1, 3-(6-Acetylaminopyridin-3-yl)methoxy-N-(2-methyl-quinolin-6-yl)-benzamide]: the IC50 in assay [1] was > 10000 nM; in assay [3] (read-out: HUVEC IC50), 38 nM; in assay [3] (setting [4]), > 1000 nM. This compound also gave a Ki in assay [2] of 1.3 nM. Also, the inhibition at 1 µM at CDK2/Cyclin A complex turned out to be 18%; on CDK4/Cyclin D3 complex, 19%.
